Measurements from patent US12358960B2, “Selective targeting of ubiquitin- and ubiquitin-like E1-activating enzymes by structurally-stabilized peptides” (Dana-Farber Cancer Institute, Inc., priority 2019, dated 2025).
Entries after “also recorded” stand apart in the source; their conditions may differ. Bridge positions count the residues as written; N and C are the ends. Square brackets hold non-standard residues; d marks the D form. Peptide text beside a SMILES is read from it. R8 = C=CCCCCCC[C@@](C)(N)C(=O)O; S5 = C=CCCC[C@](C)(N)C(=O)O; Nle = CCCC[C@H](N)C(=O)O

Molecular target: T1, Human E1 activating enzyme UBA1 (Homo sapiens, UniProt P22314)
T1 sequence (P22314 1-1058): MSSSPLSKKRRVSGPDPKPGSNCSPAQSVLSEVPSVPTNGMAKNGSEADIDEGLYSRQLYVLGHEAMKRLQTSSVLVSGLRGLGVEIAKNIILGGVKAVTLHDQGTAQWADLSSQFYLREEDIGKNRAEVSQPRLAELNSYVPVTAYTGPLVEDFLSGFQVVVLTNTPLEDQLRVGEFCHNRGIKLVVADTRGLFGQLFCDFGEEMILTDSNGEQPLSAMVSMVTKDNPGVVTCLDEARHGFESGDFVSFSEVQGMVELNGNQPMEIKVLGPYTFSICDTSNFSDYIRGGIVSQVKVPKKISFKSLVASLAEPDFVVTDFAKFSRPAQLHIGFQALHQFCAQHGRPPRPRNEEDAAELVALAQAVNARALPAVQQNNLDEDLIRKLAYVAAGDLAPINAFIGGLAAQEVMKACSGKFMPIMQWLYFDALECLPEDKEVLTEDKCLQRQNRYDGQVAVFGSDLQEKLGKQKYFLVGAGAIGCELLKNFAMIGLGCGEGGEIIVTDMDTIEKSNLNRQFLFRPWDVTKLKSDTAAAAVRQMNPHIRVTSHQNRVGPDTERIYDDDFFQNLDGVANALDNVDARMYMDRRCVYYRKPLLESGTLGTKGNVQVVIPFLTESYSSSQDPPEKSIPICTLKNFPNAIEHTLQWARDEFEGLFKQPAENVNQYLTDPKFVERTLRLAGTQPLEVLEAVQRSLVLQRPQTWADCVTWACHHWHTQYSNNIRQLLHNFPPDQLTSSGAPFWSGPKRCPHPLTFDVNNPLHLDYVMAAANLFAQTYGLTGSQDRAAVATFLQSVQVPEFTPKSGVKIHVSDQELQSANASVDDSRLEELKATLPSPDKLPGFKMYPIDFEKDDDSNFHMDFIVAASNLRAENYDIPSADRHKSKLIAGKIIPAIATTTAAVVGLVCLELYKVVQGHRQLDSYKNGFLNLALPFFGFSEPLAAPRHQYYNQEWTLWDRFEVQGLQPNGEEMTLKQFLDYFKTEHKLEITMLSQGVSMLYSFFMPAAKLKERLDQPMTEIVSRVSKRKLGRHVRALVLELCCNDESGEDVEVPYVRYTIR
Assay: In vitro enzyme inhibition assay: E1-mediated ubiquitin thioester transfer to E2 (band shift, silver stain)
Type: biochemical
Details: for effect of nonionic detergent on inhibitory activity against UBA1: 0.01% Triton X-100 in assay buffer
Procedure: In vitro Enzyme Inhibition Assays: To assess an E2 hA peptide's inhibition of an E1 enzyme, an in vitro enzyme inhibition assay can be used, for example. The in vitro enzyme inhibition assay measures an E2 hA peptide's ability to inhibit conjugation of ubiquitin to E2 by E1. Briefly, recombinant E1 (e.g., UBA1), recombinant E2 (e.g., UBE2A), ubiquitin, and Mg-ATP are combined in the presence of an E2 hA peptide or vehicle control (e.g., 1% DMSO) for a period of time (e.g., 30 minutes) at room temperature in a buffer containing, e.g., 50 mM NaCl, 50 mM HEPES pH 7.5. Control reaction includes no E1. Reactions are quenched by addition of SDS-containing loading dye and samples are resolved on a gel (e.g., a 4-12% Bis-Tris protein gel) under nonreducing conditions. Proteins on the gel are visualized via, e.g., silver stain. Conjugation of ubiquitin to E2 by E1 is monitored by conversion of free E2 (˜17 kDa) to E2˜ubiquitin conjugate (˜26 kDa).
Control reaction included no E1 enzyme. Reactions were quenched by addition of SDS-containing loading dye and samples were resolved on a 4-12% Bis-Tris protein gel under nonreducing conditions. Proteins were visualized via silver stain. Conjugation of ubiquitin to E2 by E1 was monitored by conversion of free E2 (17 kDa) to E2˜ubiquitin conjugate (26 kDa).
The ability of the peptides to inhibit E1-mediated thioester transfer to E2 was evaluated. Human E1 activating enzyme UBA1 (10 nM), UbcH5b E2 enzyme (150 nM), ubiquitin (1 μM), and Mg-ATP (20 μM) were combined in the presence of stapled peptide at a range of concentrations or vehicle control (1% DMSO) for 45 minutes at room temperature in buffer containing 50 mM NaCl, 50 mM HEPES, 1 mM TCEP pH 7.5. Reactions were quenched by addition of SDS-containing loading dye and samples were resolved on a 4-12% Bis-Tris protein gel under nonreducing conditions. Proteins were visualized via silver stain. Conjugation of ubiquitin to E2 by E1 was monitored by conversion of free E2 (17 kDa) to E2˜ubiquitin conjugate (26 kDa). Inhibition percentage was calculated from densitometry of silver stain images.
Streptavidin-biotin pull-down assays: For recombinant protein pull-downs, 10 pmol recombinant human UBA1 was incubated with 5 nmol C-terminally biotinylated SAH-UBE2A or DMSO vehicle control in a total volume of 1 mL binding buffer (50 mM NaCl, 20 mM HEPES, pH 7.4, 5 mM DTT) for 1.5 hours at 4° C. 30 μL of pre-equilibrated streptavidin agarose beads were then added and incubated for an additional 1.5 hours at 4° C. The beads were pelleted by centrifugation and washed three times with NP-40 buffer (20 mM HEPES, pH 7.4, 50 mM NaCl, 5 mM DTT, 0.5% [v/v] NP-40) before eluting the protein sample from the beads by heating at 70° C. for 10 min in 3×SDS loading buffer. Samples were subjected to electrophoresis and silver staining (Pierce 24612). For pull-down from cellular lysates, 0.75 mg HeLa cell lysate was incubated with 5 nmol C-terminally biotinylated SAH-UBE2A or DMSO vehicle control in a total volume of 1 mL binding buffer (50 mM NaCl, 20 mM HEPES, pH 7.4, 5 mM DTT) containing protease-phosphatase inhibitor cocktail for 2 hours at 4° C. 30 μL of pre-equilibrated streptavidin agarose beads (ThermoFisher 20357) were then added and incubated for an additional 1.5 hours at 4° C. The beads were pelleted by centrifugation and washed three times with NP-40 buffer (20 mM HEPES, pH 7.4, 50 mM NaCl, 5 mM DTT, 0.5% [v/v] NP-40) before eluting the protein sample from the beads by heating at 70° C. for 10 min in 3×SDS loading buffer. Proteins were separated by SDS-PAGE gel electrophoresis and detected by western blot against UBE1 (Abcam ab34711). In vitro Enzyme Inhibition Assays: Recombinant human E1 activating enzyme UBA1 (10 nM), E2 enzyme (150 nM), ubiquitin (1 μM), and Mg-ATP (20 μM) are combined in the presence of peptide or vehicle control (1% DMSO) for 45 minutes at room temperature in buffer containing 50 mM NaCl, 50 mM HEPES pH 7.5. Control reaction includes no E1 enzyme. […]

CCCC[C@H](NC(C)=O)C(=O)N[C@@H](CO)C(=O)N[C@H](C(=O)N1CCC[C@H]1C(=O)N[C@]1(C)CCCCCCC=CCCC[C@@](C)(C(=O)N[C@@H](Cc2ccccc2)C(=O)N[C@@H](CCCCN)C(=O)N[C@@H](CCCNC(=N)N)C(=O)N[C@@H](CC(C)C)C(=O)N[C@@H](CCC(N)=O)C(N)=O)NC(=O)[C@H](CCCNC(=N)N)NC(=O)[C@H](CCCC)NC(=O)[C@H](CC(C)C)NC(=O)[C@H](CCCNC(=N)N)NC(=O)[C@H](CCCNC(=N)N)NC(=O)[C@H](CCCNC(=N)N)NC1=O)[C@@H](C)O [SAH-UBE2A-11, BSTPX1RRRLBRX2FKRLQ] (Ac-[Nle]STP[R8]RRRL[Nle]R[S5]FKRLQ-NH2; staple 5-12)
effect of nonionic detergent on inhibitory activity against UBA1: not affected at all by the presence of non-ionic detergent | effect of nonionic detergent on inhibitory activity against UBA1 (listed as SAH-UBE2A): no effect on the inhibitory activity of SAH-UBE2A | inhibition of E1-mediated thioester transfer to a variety of human E2 enzymes (panel of human E2 enzymes (UBE2A, UBE2B, UBE2C, UBE2D1-4 etc.)): inhibited E1-mediated thioester transfer to all human E2 enzymes tested; also recorded: inhibits E1 thioester transfer activity | inhibition of E1-mediated thioester transfer to E2, dose response (range of peptide concentrations, UbcH5b E2 enzyme, 45 minutes): inhibited E1-mediated thioester transfer to E2 in a dose-dependent manner; also recorded: most potent activity; also recorded: dose-dependently inhibit E1-mediated thioester transfer to E2
